What was measured:
Assay type in all cases: in vivo
[1] = test system: redroot pigweed (Amaranthus retroflexus, AMARE); assay: Pre-emerge test, greenhouse herbicide activity screening; settings: rated 14 days after application, 0 = no damage, 100 = complete death
In short: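 Rating: 0–100 visual injury, 14 DAA. Application: acetone, 187 l/ha, 15–1000 g ai/ha, flat-fan track sprayer with nozzle 40–45 cm above soil or canopy. Post-emerge runs used 0.25% v/v surfactant on 2–3 leaf plants.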

[2] = test system: upland rice (Oryza sp., var. Tebonnet, RICE); assay: Post-emerge test, crop safety; settings: post-emerge, 14 days after application, rating scale 0-100
In short: (§1)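 Fourteen days after spraying, crop and weed injury was graded visually from 0, no effect, to 100, every plant dead. Test substances were dissolved in acetone and applied at 15–1000 g ai/ha with a flat-fan nozzle. Application was either pre-emergence, one day after sowing, or post-emergence at the 2–3 leaf stage.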

[3] = test system: field corn (Zea mays L., var. Dekalb 535, CORN); assay: Post-emerge test, crop safety; settings: post-emerge, 14 days after application, rating scale 0-100
In short: as §1

[4] = test system: ivyleaf morningglory (Ipomoea hederacea, IPOHE); assay: Post-emerge test, greenhouse herbicide activity screening; settings: post-emerge, 14 days after application, rating scale 0-100
In short: (§2)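 Compounds in acetone were track-sprayed at 15-1000 g ai/ha (187 l/ha) on sandy loam pots: pre-emerge one day after seeding, post-emerge at 2-3 leaf stage with 0.25% v/v non-ionic surfactant. Phytotoxicity was rated 14 days later on a 0 (no damage) to 100 (complete death) scale.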

[5] = test system: johnsongrass (Sorghum halepense, SORHA); assay: as above; settings: post-emerge, 14 days after application, rating scale 0-100
In short: as §2

[6] = test system: sicklepod (Cassia obtusifolia, CASOB); assay: as above; settings: post-emerge, 14 days after application, rating scale 0-100
In short: as §2

[7] = test system: redroot pigweed (Amaranthus retroflexus, AMARE); assay: as above; settings: post-emerge, 14 days after application, rating scale 0-100
In short: as §2

[8] = test system: common ragweed (Ambrosia artemisizfolia L., AMBEL); assay: as above; settings: post-emerge, 14 days after application, rating scale 0-100
In short: as §2

[9] = test system: barnyardgrass (Echinochloa crus-galli, ECHCG); assay: as above; settings: post-emerge, 14 days after application, rating scale 0-100
In short: as §2

[10] = test system: green foxtail (Setaria viridis, SETVI); assay: as above; settings: post-emerge, 14 days after application, rating scale 0-100
In short: as §2

[11] = test system: lambsquarters (Chenopodium album, CHEAL); assay: as above; settings: post-emerge, 14 days after application, rating scale 0-100
In short: as §2

[12] = test system: velvetleaf (Abutilon theophrasti, ABUTH); assay: as above; settings: post-emerge, 14 days after application, rating scale 0-100
In short: as §2

[13] = test system: large crabgrass (Digitaria sanguinalis, DIGSA); assay: as above; settings: post-emerge, 14 days after application, rating scale 0-100
In short: as §2

[14] = test system: upland rice (Oryza sp., var. Tebonnet, RICE); assay: Pre-emerge test, crop safety; settings: rated 14 days after application, 0 = no damage, 100 = complete death
In short: (§3)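 Sandy loam pots; pre-emerge: sown 1 d pre-spray, surface-watered after, then bottom-watered. Post-emerge: sown 8–21 d before, 2–3 leaf stage, + 0.25% v/v NIS, bottom-watered. Acetone, 187 l/ha track spray, 15–1000 g ai/ha. 0–100 injury score, day 14.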

[15] = test system: field corn (Zea mays L., var. Dekalb 535, CORN); assay: Pre-emerge test, crop safety; settings: rated 14 days after application, 0 = no damage, 100 = complete death
In short: as §3

[16] = test system: ivyleaf morningglory (Ipomoea hederacea, IPOHE); assay: Pre-emerge test, greenhouse herbicide activity screening; settings: rated 14 days after application, 0 = no damage, 100 = complete death
In short: as §1

[17] = test system: johnsongrass (Sorghum halepense, SORHA); assay: as above; settings: rated 14 days after application, 0 = no damage, 100 = complete death
In short: as §1

[18] = test system: sicklepod (Cassia obtusifolia, CASOB); assay: as above; settings: rated 14 days after application, 0 = no damage, 100 = complete death
In short: as §1

[19] = test system: common ragweed (Ambrosia artemisizfolia L., AMBEL); assay: as above; settings: rated 14 days after application, 0 = no damage, 100 = complete death
In short: as §1

[20] = test system: barnyardgrass (Echinochloa crus-galli, ECHCG); assay: as above; settings: rated 14 days after application, 0 = no damage, 100 = complete death
In short: as §1

[21] = test system: green foxtail (Setaria viridis, SETVI); assay: as above; settings: rated 14 days after application, 0 = no damage, 100 = complete death
In short: as §1

[22] = test system: lambsquarters (Chenopodium album, CHEAL); assay: as above; settings: rated 14 days after application, 0 = no damage, 100 = complete death
In short: as §1

[23] = test system: velvetleaf (Abutilon theophrasti, ABUTH); assay: as above; settings: rated 14 days after application, 0 = no damage, 100 = complete death
In short: as §1

[24] = test system: large crabgrass (Digitaria sanguinalis, DIGSA); assay: as above; settings: rated 14 days after application, 0 = no damage, 100 = complete death
In short: as §1

COc1c(Cl)cc(F)c(-n2c(=O)cc(C(F)(F)F)n(C)c2=O)c1NC(=O)c1ccccc1F [2-39]
Pre-emerge Herbicidal Activity, phytotoxicity rating (0-100), AMARE ([1]; 63 g ai/ha): 100
Pre-emerge Herbicidal Activity, phytotoxicity rating (0-100), AMARE ([1]; 250 g ai/ha): 100
phytotoxicity rating RICE ([2]; 63 g ai/ha): 30
phytotoxicity rating RICE ([2]; 250 g ai/ha): 70
phytotoxicity rating CORN ([3]; 63 g ai/ha): 20
phytotoxicity rating CORN ([3]; 250 g ai/ha): 70
phytotoxicity rating IPOHE ([4]; 63 g ai/ha): 99
phytotoxicity rating IPOHE ([4]; 250 g ai/ha): 100
phytotoxicity rating SORHA ([5]; 63 g ai/ha): 10
phytotoxicity rating SORHA ([5]; 250 g ai/ha): 60
phytotoxicity rating CASOB ([6]; 63 g ai/ha): 60
phytotoxicity rating CASOB ([6]; 250 g ai/ha): 90
phytotoxicity rating AMARE ([7]; 63 g ai/ha): 70
phytotoxicity rating AMARE ([7]; 250 g ai/ha): 95
phytotoxicity rating AMBEL ([8]; 63 g ai/ha): 50
phytotoxicity rating AMBEL ([8]; 250 g ai/ha): 95
phytotoxicity rating ECHCG ([9]; 63 g ai/ha): 0
phytotoxicity rating ECHCG ([9]; 250 g ai/ha): 60
phytotoxicity rating SETVI ([10]; 63 g ai/ha): 20
phytotoxicity rating SETVI ([10]; 250 g ai/ha): 80
phytotoxicity rating CHEAL ([11]; 63 g ai/ha): 90
phytotoxicity rating CHEAL ([11]; 250 g ai/ha): 95
phytotoxicity rating ABUTH ([12]; 63 g ai/ha): 100
phytotoxicity rating ABUTH ([12]; 250 g ai/ha): 100
phytotoxicity rating DIGSA ([13]; 63 g ai/ha): 0
phytotoxicity rating DIGSA ([13]; 250 g ai/ha): 50
Pre-emerge phytotoxicity rating (0-100), crop damage, RICE ([14]; 63 g ai/ha): 90
Pre-emerge phytotoxicity rating (0-100), crop damage, RICE ([14]; 250 g ai/ha): 99
Pre-emerge phytotoxicity rating (0-100), crop damage, CORN ([15]; 63 g ai/ha): 70
Pre-emerge phytotoxicity rating (0-100), crop damage, CORN ([15]; 250 g ai/ha): 95
Pre-emerge Herbicidal Activity, phytotoxicity rating (0-100), IPOHE ([16]; 63 g ai/ha): 95
Pre-emerge Herbicidal Activity, phytotoxicity rating (0-100), IPOHE ([16]; 250 g ai/ha): 100
Pre-emerge Herbicidal Activity, phytotoxicity rating (0-100), SORHA ([17]; 63 g ai/ha): 60
Pre-emerge Herbicidal Activity, phytotoxicity rating (0-100), SORHA ([17]; 250 g ai/ha): 100
Pre-emerge Herbicidal Activity, phytotoxicity rating (0-100), CASOB ([18]; 63 g ai/ha): 100
Pre-emerge Herbicidal Activity, phytotoxicity rating (0-100), CASOB ([18]; 250 g ai/ha): 100
Pre-emerge Herbicidal Activity, phytotoxicity rating (0-100), AMBEL ([19]; 63 g ai/ha): 100
Pre-emerge Herbicidal Activity, phytotoxicity rating (0-100), AMBEL ([19]; 250 g ai/ha): 100
Pre-emerge Herbicidal Activity, phytotoxicity rating (0-100), ECHCG ([20]; 63 g ai/ha): 90
Pre-emerge Herbicidal Activity, phytotoxicity rating (0-100), ECHCG ([20]; 250 g ai/ha): 100
Pre-emerge Herbicidal Activity, phytotoxicity rating (0-100), SETVI ([21]; 63 g ai/ha): 100
Pre-emerge Herbicidal Activity, phytotoxicity rating (0-100), SETVI ([21]; 250 g ai/ha): 100
Pre-emerge Herbicidal Activity, phytotoxicity rating (0-100), CHEAL ([22]; 63 g ai/ha): 100
Pre-emerge Herbicidal Activity, phytotoxicity rating (0-100), CHEAL ([22]; 250 g ai/ha): 100
Pre-emerge Herbicidal Activity, phytotoxicity rating (0-100), ABUTH ([23]; 63 g ai/ha): 100
Pre-emerge Herbicidal Activity, phytotoxicity rating (0-100), ABUTH ([23]; 250 g ai/ha): 100
Pre-emerge Herbicidal Activity, phytotoxicity rating (0-100), DIGSA ([24]; 63 g ai/ha): 99
Pre-emerge Herbicidal Activity, phytotoxicity rating (0-100), DIGSA ([24]; 250 g ai/ha): 100
